For orientation: Kd means a measure of binding affinity in units of concentration.

Changes are numbered by the printed parent chain. Values joined by “and” are separate entries in the source; they are usually repeats but may differ in a detail not shown here. Equal values may be shown once.

In experiment [1] the target is T1, R190H ATR (Homo sapiens, UniProt Q96EY8, R190H).
T1 construct: The expression construct for recombinant human full-length and ΔN18 ATR in a pET-28b vector; His-tag (thrombin-cleavable) (N, cleaved yes); made in house; host or cells: E. coli BL21 (DE3)
T1 sequence (Q96EY8 38-250 R190H limits assumed): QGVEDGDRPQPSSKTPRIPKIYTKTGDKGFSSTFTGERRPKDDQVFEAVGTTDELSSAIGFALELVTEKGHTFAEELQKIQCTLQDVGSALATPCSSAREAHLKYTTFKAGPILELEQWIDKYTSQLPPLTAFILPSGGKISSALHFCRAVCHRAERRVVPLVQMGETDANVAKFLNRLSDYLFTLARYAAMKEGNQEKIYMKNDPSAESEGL
Nature of the experiment: Cob(II)alamin binding to ATR, UV-visible titration. The note with it: 1 mM ATP, anaerobic, buffer A. On the procedure: (§1) Cob(II)alamin binding to ATR was determined by the titrations performed in the anaerobic chamber (<0.2 ppm O2 levels). The increasing concentrations of WT or mutant ATR were added to 30 μM cob(II)alamin and 1 mM ATP in buffer A. The concentration of bound cob(II)alamin was determined using Δε474nm = 5.1 cm^−1 mM^−1. The change in absorbance at 464 nm, corresponding to the base-off ATR-bound cob(II)alamin was plotted against ATR concentration, and the data were analyzed using Equation 1, as described above.

In experiment [2] the target is T2, R190C ATR (Homo sapiens, UniProt Q96EY8, R190C).
T2 sequence (Q96EY8 38-250 R190C limits assumed): T1 sequence (Q96EY8 38-250 R190H limits assumed) with H153C
Kind of experiment: EPR spectroscopy of cob(II)alamin with ATR and ATP. It counts as binding. More on the design: The expression construct for recombinant human full-length and ΔN18 ATR in a pET-28b vector; His-tag (thrombin-cleavable) (N, cleaved yes); made in house; host or cells: E. coli BL21 (DE3). The note with it: R190C ATR 500 μM trimer, cob(II)alamin 300 μM, 5 mM ATP, 100 K. On the procedure:
(§2) EPR spectra were recorded on a Bruker EMX 300 equipped with a Bruker 4201 cavity and a Varian liquid nitrogen cryostat. The temperature was controlled by an Oxford Instruments ITC4 temperature controller. The samples were prepared inside an anaerobic chamber (O2 < 0.3 ppm) and contained 300 μM cob(II)alamin, 5 mM ATP and WT ATR (200 μM trimer) or 500 μM (trimer) E193K, R190C or R190H ATR in 50 mM Hepes pH 7.5, 150 mM KCl, 2 mM MgCl2, 2 mM TCEP, and 10% glycerol. The following instrument settings were employed: microwave frequency, 9.27 GHz; power, 2.0 mW; modulation amplitude, 1.0 mT; modulation frequency, 100 kHz; temperature, 100 K. Five scans were acquired for each sample. A buffer spectrum was subtracted from the sample spectrum. The EPR simulations were performed using the EasySpin program ([36]).

In experiment [3] the target is T3, E193K ATR (Homo sapiens, UniProt Q96EY8, E193K).
T3 sequence (Q96EY8 38-250 E193K limits assumed): T1 sequence (Q96EY8 38-250 R190H limits assumed) with H153R, E156K
Kind of experiment: EPR spectroscopy of cob(II)alamin with ATR and ATP. It is filed as binding. More on the design: WT and the R190C variants of ΔN18-ATR and full-length E193K ATR were purified; His-tag (thrombin-cleavable) (N, cleaved yes); made in house; host or cells: E. coli BL21 (DE3). The settings on record: E193K ATR 500 μM trimer, cob(II)alamin 300 μM, 5 mM ATP, 100 K. The protocol:
as §2

Experiment [4] concerns the target T2, R190C ATR. Nature of the experiment: Cob(II)alamin binding to ATR, UV-visible titration. More on the design: The expression construct for recombinant human full-length and ΔN18 ATR in a pET-28b vector; His-tag (thrombin-cleavable) (N, cleaved yes); made in house; host or cells: E. coli BL21 (DE3). The note with it: 1 mM ATP, anaerobic, buffer A. On the procedure:
as §1

For experiment [5], the target named is T4, WT ATR (Homo sapiens, UniProt Q96EY8).
T4 sequence (Q96EY8 38-250 limits assumed): T1 sequence (Q96EY8 38-250 R190H limits assumed) with H153R
Kind of experiment: Cob(II)alamin binding to ATR, UV-visible titration. Further details: The expression construct for recombinant human full-length and ΔN18 ATR in a pET-28b vector; His-tag (thrombin-cleavable) (N, cleaved yes); made in house; host or cells: E. coli BL21 (DE3). The note with it: 1 mM ATP, anaerobic, buffer A. On the procedure:
as §1

The target of experiment [6] is T1, R190H ATR. Kind of experiment: EPR spectroscopy of cob(II)alamin with ATR and ATP. It is filed as binding. The note with it: R190H ATR 500 μM trimer, cob(II)alamin 300 μM, 5 mM ATP, 100 K. The protocol: as §2
Experiment [7] has as its target T3, E193K ATR. Nature of the experiment: Cob(II)alamin binding, separation of unbound ligand with 10 kDa cut-off filter. More on the design: WT and the R190C variants of ΔN18-ATR and full-length E193K ATR were purified; His-tag (thrombin-cleavable) (N, cleaved yes); made in house; host or cells: E. coli BL21 (DE3). The protocol: Although we were unable to determine the KM for cob(II)alamin because of technical limitations of the steady-state assay, the KD for this substrate was determined. In the presence of ATP, cob(II)alamin binds to ATR in a four-coordinate base-off conformation ([17]), which is signaled by a blue shift in the absorption maximum from 474 to 464 nm and an increase in absorption intensity (Fig. 2C). […] In contrast, spectral changes in cob(II)alamin were not observed with E193K ATR (Fig. 2D), indicating either greatly weakened affinity or the presence of bound five-coordinate cob(II)alamin. […] Although some cob(II)alamin (18 μM) was present in the filtrate, the remainder was bound to ATR (Fig. 2D).

On to `C/C1=C2/[N-][C@H]([C@H](CC(N)=O)[C@@]2(C)CCC(=O)NC[C@@H](C)OP(=O)([O-])O[C@H]2[C@@H](O)[C@@H](n3cnc4cc(C)c(C)cc43)O[C@@H]2CO)[C@]2(C)N=C(/C(C)=C3N=C(/C=C4N=C1[C@@H](CCC(N)=O)C\4(C)C)[C@@H](CCC(N)=O)[C@]\3(C)CC(N)=O)[C@@H](CCC(N)=O)[C@]2(C)CC(N)=O.[Co+2]` [cob(II)alamin], for which the dissociation constant Kd amounted to 38.5 ± 16.5 µM in experiment [1], 46 ± 10 µM in experiment [4] and 0.08 ± 0.01 µM in experiment [5]. The “four-coordinate base-off cob(II)alamin, share of EPR spectrum” value in experiment [2] and in experiment [6] was 75% in each case. In addition, the “unbound five-coordinate base-on cob(II)alamin, share of EPR spectrum” value in experiment [2] and in experiment [6] was 25% each time. Besides, the “five-coordinate base-off cob(II)alamin, share of EPR spectrum” value in experiment [3] was 76% and ~80%. In experiment [3], the “free base-on cob(II)alamin, share of EPR spectrum” value is 24% and 20%. Further, the “cob(II)alamin in the filtrate (unbound)” value in experiment [7] (E193K ATR 1.5 mM) was found to be 18%. Further, the “cob(II)alamin present in the filtrate (unbound)” value in experiment [7] (cob(II)alamin 100 μM, E193K ATR 500 μM trimer, ATP 2 mM) came out at 18 µM.

The values are drawn from article PMC8633584, “Patient mutations in human ATP:cob(I)alamin adenosyltransferase differentially affect its catalytic versus chaperone functions” (The Journal of Biological Chemistry, 2021).
